# From patent publication US5015639A, “Substituted benzazepines, their preparation and pharmaceutical compositions containing them” (Schering Corporation, priority 1989, dated 1991)
# Like-named read-outs stand apart in the source and are kept apart here.
# What was measured:
# [1] = molecular target: T1, D-2 receptor (Rattus norvegicus, UniProt P61169); assay: Competitive inhibition assay vs. 3H-spiperone (D-2 receptor binding); set-up: species or system Male Sprague-Dawley rat (striatal tissue); details: rat striatal homogenate, 0.2 nM 3H-spiperone, pH 7.4, 37° C., 15 min
# T1 construct: Striatal tissue was excised, pooled, and homogenized; tissue Charles River Breeding Laboratories, Mass; (animals); host or cells: striatum of male Sprague-Dawley rats, washed membrane pellet
# Method: (§1) Many compounds capable of effecting reproducible physiological changes in neural tissues are believed to operate by binding at one or more receptor sites.
# (§2) Tritiated SCH 23390 and tritiated spiperone (a potent D-2 ligand) were obtained as described in the Billard et al. reference supra and serially diluted in 0.05 M Tris buffer, pH 7.4, as required. A compound of the invention is diluted in 0.05 M Tris buffer, pH 7.4, as required.
# (§3) Male Sprague-Dawley rats (200 to 250 g) from Charles River Breeding Laboratories, Mass. were used to obtain brain tissue. The rats were humanely sacrificed and their brains removed and placed on ice. Striatal tissue was excised, pooled, and homogenized (Brinkman Polytron, 10 sec) in 100 volumes (w/v) of ice cold 50 mM Tris buffer, pH 7.4 (at 25° C.). The homogenate was centrifuged at 20,000 xg for 10 min. The resultant pellet was rehomogenized in Tris buffer and centrifuged again. The final pellet was resuspended in 50 mM Tris buffer pH 7.4 containing 120 mM NaCl, 5 mM KCl, 2 mM CaCl2, and 1 mM MgCl2.
# (§4) Polypropylene incubation tubes received 100 μl of the individual test compounds at various concentrations dissolved or suspended in 0.05 M Tris, pH 7.4 containing 4 mg/ml methylcellulose, 100 μl of a solution of ^3 H-SCH 23390 in Tris buffer (final reaction mixture concentration =0.3 nM) or 100 μl of a solution of 3H-spiperone in Tris buffer (final concentration =0.2 nM) and 800 μl of tissue suspension (ca. 3 mg/assay). Tubes were incubated at 37° C. for 15 minutes and rapidly vacuum filtered through Whatman GF/B filters and rinsed 4 times with 4 ml of ice cold 50 mM Tris buffer, pH 7.4. The filters were transferred to scintillation vials, equilibated with 10 ml of scintillant (Scintosol, Isolab, Inc.) for 16 hours at 25° C. and the radioactivity determined in a liquid scintillation counter. Ki values were determined as described by Billard et al. using the relationship Ki =IC50 /(1+([L]/KD)) wherein IC50 =concentration of test drug necessary to displace 50% of specifically bound ^3 H-Sch 23390, [L]=concentration of radioligand used in the assay, and KD =dissociation constant.
# [2] = tested on: conditioned avoidance response (CAR); assay: Conditioned avoidance suppression in rats (Rat CAR); type: in vivo; details: lowest dose that significantly (P<0.05) reduced avoidance responding, read-out: Rat CAR, minimal effective dose (MED)
# Method: N. Y. Acad. Sci. 66, 740 (1957)}. A series of experiments was carried out to assess the ability of the compounds of this invention to suppress the conditioned avoidance response (CAR) in rats.
# Rats were required to jump onto a platform located 6.75 inches (17.15 cm) above the grid floor of an experimental chamber in response to a 5-second tone to avoid a 10-second foot shock (0.6 ma). Each experimental session consisted of 20 such trials presented at 30-second intervals. A correct CAR is scored whenever the rat jumps onto the platform during the tone (prior to foot shock). An escape response is scored when the rat jumps onto the platform during a shock. A response failure is defined as the lack of an escape response during the 10-second shock period.
# Groups of 6-8 rats were trained in two consecutive days (total of 40 trials). Rats that reached criterion on day 2 (correct CARs on 16 or more of the 20 trials) were treated with either a test drug or vehicle on day 3. Suppression of CAR was analyzed statistically using Student's t-test comparing the performances of drug-treated to vehicle-treated rats.
# [3] = molecular target: T2, dopamine D-1 receptor (Rattus norvegicus, UniProt P18901); assay: Competitive inhibition assay vs. 3H-SCH 23390 (dopamine D-1 receptor binding); set-up: species or system Male Sprague-Dawley rat (striatal tissue)
# T2 construct: Striatal tissue was excised, pooled, and homogenized; tissue Charles River Breeding Laboratories, Mass; (animals); host or cells: striatum of male Sprague-Dawley rats, washed membrane pellet
# Method: as §1, §2, §3, §4
# [4] = rat striatal homogenate, 0.3 nM 3H-SCH 23390, pH 7.4, 37° C., 15 min, read-out: Ki vs. 3H-SCH 23390
# T1 sequence (P61169 whole entry): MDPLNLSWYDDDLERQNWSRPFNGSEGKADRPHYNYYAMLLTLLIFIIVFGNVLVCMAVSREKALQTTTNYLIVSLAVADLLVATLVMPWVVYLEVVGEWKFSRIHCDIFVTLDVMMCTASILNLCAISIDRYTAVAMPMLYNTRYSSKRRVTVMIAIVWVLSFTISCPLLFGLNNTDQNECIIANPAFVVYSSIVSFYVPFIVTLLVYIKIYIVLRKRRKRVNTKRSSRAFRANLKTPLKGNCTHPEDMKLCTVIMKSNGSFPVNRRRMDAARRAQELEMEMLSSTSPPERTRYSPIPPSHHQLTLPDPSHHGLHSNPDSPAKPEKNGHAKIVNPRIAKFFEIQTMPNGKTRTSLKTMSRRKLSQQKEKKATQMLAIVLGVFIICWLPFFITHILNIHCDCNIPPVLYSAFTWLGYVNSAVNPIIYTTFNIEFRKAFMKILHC
# T2 sequence (P18901 whole entry): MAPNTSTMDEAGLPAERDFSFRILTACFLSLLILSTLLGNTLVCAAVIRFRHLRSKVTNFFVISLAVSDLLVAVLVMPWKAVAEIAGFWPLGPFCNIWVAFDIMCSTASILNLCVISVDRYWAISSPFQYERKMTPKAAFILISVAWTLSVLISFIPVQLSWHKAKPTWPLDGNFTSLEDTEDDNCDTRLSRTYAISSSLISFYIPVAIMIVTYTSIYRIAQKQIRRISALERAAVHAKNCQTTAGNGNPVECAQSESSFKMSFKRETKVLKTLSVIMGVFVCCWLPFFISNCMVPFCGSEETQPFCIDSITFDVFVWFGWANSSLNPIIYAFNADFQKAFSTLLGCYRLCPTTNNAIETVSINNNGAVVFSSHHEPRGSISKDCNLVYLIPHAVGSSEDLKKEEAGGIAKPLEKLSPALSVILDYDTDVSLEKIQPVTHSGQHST
SMILES,Ki [1] [nM],"Ki [3, 4] [nM]",minimal effective dose ([2]; po) [mg/kg],minimal effective dose ([2]; sc) [mg/kg],Ki [3] [nM]
"COC1CN(C)CCc2cc(Cl)c(O)cc21 (centres unmarked) [Compound 1, 8-chloro-5-methoxy-3-methyl-2,3,4,5-tetrahydro-lH-3-benzazepine-7-ol]",5600,–,> 30,1,54
"CCOC1CN(C)CCc2cc(Cl)c(O)cc21 (centres unmarked) [Compound 2, 8-chloro-5-ethoxy-3-methyl-2,3,4,5-tetrahydro-lH-3-benzazepine-7-ol]",7720,–,> 30,1,34
CCSC1CNCCc2cc(Cl)c(O)cc21 (centres unmarked) [Compound 3],6500,380,–,< 10,–
"CN1CCc2cc(Cl)c(O)cc2C(N2CCCCC2)C1 (centres unmarked) [Compound 6, 8-chloro-3-methyl-5-(1-piperidinyl)-2,3,4,5-tetrahydro-lH-3-benzazepine-7-ol]",7500,64,30,3,–
CN1CCc2cc(Cl)c(O)cc2C(n2ccnc2)C1 (centres unmarked) [Compound 7],–,–,> 30,> 10,–
"CN1CCc2cc(Cl)c(O)cc2C(OCC(F)(F)F)C1 (centres unmarked) [Compound 9, 8-chloro-5-(2,2,2-trifluoroethoxy)-3-methyl-2,3,4,5-tetrahydro-lH-3-benzazepine-7-ol]",14900,59,> 30,1,–
"CN1CCc2cc(Cl)c(O)cc2C(n2cccc2)C1 (centres unmarked) [Compound 13, 8-chloro-5-(1-pyrrolyl)-3-methyl-2,3,4,5-tetrahydro-lH-3-benzazepine-7-ol]",16100,11,> 30,0.3,–
"CN1CCc2cc(Cl)c(O)cc2C2(CCCC2)C1 [Compound 15, 8-chloro-7-hydroxy-3-methyl-2,3,4,5-tetrahydrospiro[lH-3-benzazepine-5,5'-cyclopentane]]",860,–,> 30,1,19
"CCOC(=O)Oc1cc2c(cc1Cl)CCN(C)CC2C1CCCCC1 (centres unmarked) [Compound 16, 8-chloro-7-(ethoxy-formyloxy)-5-cyclohexyl-3-methyl-2,3,4,5-tetrahydro-lH-3-benzazepine]",3330,133,> 30,< 3,–
"C=CCC1CN(C)CCc2cc(Cl)c(OC(=O)COC)cc21 (centres unmarked) [Compound 18, 8-chloro-7-(methoxy-acetoxy)-5-allyl-3-methyl-2,3,4,5-tetrahydro-lH-3-benzazepine]",566,10.3,100,< 0.3,–
"CC(=O)Oc1cc2c(cc1Cl)CCN(C)CC2CC=C(C)C (centres unmarked) [Compound 19, 8-chloro-7-acetoxy-5-(3-methyl-2-butenyl)-3-methyl-2,3,4,5-tetrahydro-lH-3-benzazepine]",955,17,> 30,< 1,–
"C=CCC1CN(C)CCc2cc(Cl)c(OCOC(=O)C(C)(C)C)cc21 (centres unmarked) [Compound 20, 8-chloro-7-(t-butyryloxy-methoxy)-5-allyl-3-methyl-2,3,4,5-tetrahydro-lH-3-benzazepine]",2620,240,> 30,0.1,–
"CN1CCc2cc(Cl)c(O)cc2C(C2C=CCCC2)C1 (centres unmarked) [HO CH3 2-cyclohexenyl H, 8-chloro-5-(2-cyclohexenyl)-3-methyl-2,3,4,5-tetrahydro-lH-3-benzazepine-7-ol]",135,1.1,–,–,–
"CN(C)CCCC1CN(C)CCc2cc(Cl)c(O)cc21 (centres unmarked) [HO CH3 (CH2)3 N(CH3)2 H, 8-chloro-5-(N,N-dimethylaminopropyl)-3-methyl-2,3,4,5-tetrahydro-lH-3-benzazepine-7-ol]",> 100000,1100,–,–,–
CN1CCc2cc(Cl)c(O)cc2C(=Cc2ccccc2)C1 [HO CH3 CHPh],705,73,–,–,–
"CN1CCc2cc(Cl)c(O)cc2C(OC2CCCCC2)C1 (centres unmarked) [HO CH3 cyclohexyloxy H, 8-chloro-5-cyclohexyloxy-3-methyl-2,3,4,5-tetrahydro-lH-3-benzazepine-7-ol]",10100,38,–,–,–

# The next lines start with results.
Ki [1] [nM],"Ki [3, 4] [nM]",SMILES,minimal effective dose ([2]; po) [mg/kg],minimal effective dose ([2]; sc) [mg/kg],Ki [3] [nM]
610,83,"CN1CCc2cc(Cl)c(O)cc2C(Oc2ccccc2)C1 (centres unmarked) [Compound 4, 8-chloro-3-methyl-5-phenoxy-2,3,4,5-tetrahydro-lH-3-benzazepin-7-ol]",10,–,–
402,33,"CN1CCc2cc(Cl)c(O)cc2C(Sc2ccccc2)C1 (centres unmarked) [Compound 5, 8-chloro-3-methyl-5-phenylthio-2,3,4,5-tetrahydro-lH-3-benzazepin-7-ol]",> 30,> 30,–
570,10,"CN1CCc2cc(Cl)c(O)cc2C(C2CCCCC2)C1 (centres unmarked) [Compound 8, 8-chloro-5-cyclohexyl-3-methyl-2,3,4,5-tetrahydro-lH-3-benzazepine-7-ol]",30,≤ 1,–
2300,30,"CN1CCc2cc(Cl)c(O)cc2C(OCc2ccccc2)C1 (centres unmarked) [Compound 10, 8-chloro-5-benzyloxy-3-methyl-2,3,4,5-tetrahydro-lH-3-benzazepine-7-ol]",> 30,3,–
1020,8,"CN1CCc2cc(Cl)c(O)cc2C(OCCc2ccccc2)C1 (centres unmarked) [Compound 11, 8-chloro-5-(phenethyloxy)-3-methyl-2,3,4,5-tetrahydro-lH-3-benzazepine-7-ol]",> 30,1,–
1540,21,CN1CCc2cc(Cl)c(O)cc2C(C2CCCC2)C1 (centres unmarked) [Compound 12],> 30,1,–
170,6,"C=CCC1CN(C)CCc2cc(Cl)c(O)cc21 (centres unmarked) [Compound 14, 8-chloro-5-allyl-3-methyl-2,3,4,5-tetrahydro-lH-3-benzazepine-7-ol]",> 30,0.1,–
3450,84,"C=CCC1CN(C)CCc2cc(Cl)c(OC(=O)C(C)C)cc21 (centres unmarked) [Compound 17, 8-chloro-7-(isopropyl-formyloxy)-5-allyl-3-methyl-2,3,4,5-tetrahydro-lH-3-benzazepine]",> 30,0.3,–
2610,33,"CCSC1CN(C)CCc2cc(Cl)c(O)cc21 (centres unmarked) [HO CH3 SC2 H5 H, 8-chloro-5-ethylthio-3-methyl-2,3,4,5-tetrahydro-lH-3-benzazepine-7-ol]",–,–,–
